Results from PMC5464773 (eLife, 2017).
Like-named read-outs stand apart in the source and are kept apart here.

Key:
Bcl-xL = target: T1, Bcl-xL (Homo sapiens, UniProt Q07817); experiment: Competition fluorescence polarization (anisotropy) with fluoresceinated BIM; type: binding
T1 construct: c-myc
Experimental: (§1) Plates were mixed at 23°C for 3 hr. Plates were read again at 24 to check equilibration. Experiments were done in at least triplicate.

Bcl-2 = target: T2, Bcl-2 (Homo sapiens, UniProt P10415); experiment: as above; type: binding
T2 construct: c-myc
T2 sequence (P10415 whole entry): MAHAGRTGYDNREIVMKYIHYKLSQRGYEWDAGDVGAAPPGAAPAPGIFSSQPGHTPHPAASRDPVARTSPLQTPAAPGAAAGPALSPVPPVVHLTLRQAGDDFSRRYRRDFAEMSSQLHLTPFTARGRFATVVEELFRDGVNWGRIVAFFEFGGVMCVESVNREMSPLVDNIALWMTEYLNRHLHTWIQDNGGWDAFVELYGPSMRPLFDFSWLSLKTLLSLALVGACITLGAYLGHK
Experimental: as §1

Bcl-w = target: T3, Bcl-w (Homo sapiens, UniProt Q92843); experiment: as above; type: binding
T3 construct: c-myc
T3 sequence (Q92843 1-193): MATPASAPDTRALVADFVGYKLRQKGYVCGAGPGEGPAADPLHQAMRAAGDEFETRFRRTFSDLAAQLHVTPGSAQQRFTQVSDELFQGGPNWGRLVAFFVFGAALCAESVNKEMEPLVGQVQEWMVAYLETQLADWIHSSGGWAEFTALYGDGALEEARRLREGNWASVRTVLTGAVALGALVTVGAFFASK
Experimental: as §1

[1] = system: BCR-ABL-expressing B-lineage acute lymphoblastic leukemia cells dependent on Bcl-2; experiment: iBH3 profiling, cytochrome c release; type: cell-based; conditions: iBH3 fits Bcl-2, sigmoidal dose-response (variable slope); for LogEC50 (best-fit value): log of EC50, x axis Log [Peptide M]; for Bottom (best-fit value) / Top (best-fit value): fit of 3 replicates
Experimental: (§2) As an additional test for on-pathway activity, we measured cytochrome c release in the same engineered cell lines in response to peptide treatment, using iBH3 profiling ([Ryan et al., 2016]).
(§3) The creation and characterization of the BCR-ABL-expressing B-lineage acute lymphoblastic leukemia suspension cell lines with engineered dependencies on human versions of anti-apoptotic genes is detailed in [Koss et al. (2016)]). Cells were grown in RPMI (Life Technologies, Carlsbad, CA) with 10% fetal bovine serum, 2 mM L-glutamine, 10 mL/L 100x Pen/Strep (Life Technologies # 15140122), 25 mM HEPES and 10 mL/L 100x NEAA (Life Technologies, 11140050). The adherent cell lines PC-3 (RRID: CVCL_0035) and SF295 (RRID: CVCL_1690) are from the NCI60 panel ([Lorenzi et al., 2009]) and were grown in RPMI (Life Technologies) with 10% fetal bovine serum, 2 mM L-glutamine and 10 mL/L 100x Pen/Strep (Life Technologies # 15140122 ). Cell line identities were confirmed by STR profiling. The Lookout Mycoplasma PCR detection kit (Sigma) was used to detect mycoplasma infection.
(§4) Cells were suspended in MEB buffer (150 mM mannitol, 50 mM KCl, 10 mM HEPES, 5 mM succinic acid, 20 μM EGTA, 20 μM EDTA, 0.1% BSA, final pH 7.4) at 0.5*10^6 cells/mL (adherent lines) or 2 *10^6 cells/mL (suspension lines). Cell suspension was added to a 384 non-binding well plate (10 μL/well) containing peptides at 2X final concentration in MEB with 20 μg/mL digitonin. Plates were incubated at 25°C for 1 hr. To terminate exposure, 10 μL of 4% formaldehyde in PBS was added to each well, plates were incubated for 10 min before addition of 10 μL N2 buffer (1.7M Tris, 1.25M glycine, pH 9.1) for 5 min. 10 μL of staining buffer (2% Tween20, 10% BSA, PBS) containing 10 μg/mL Hoechst 33342 and 1.25 μg/mL anti-cytochrome c Alexa647 conjugate (BioLegend clone 6H2.B4) was added to each well before sealing the plate and shaking overnight. The median fluorescence of the cytochrome c channel of Hoechst positive singlets was recorded by an IntelliCyt iQue Screener Plus. Cytochrome c release was determined by normalizing the median fluorescence intensity (MFI) data to positive control wells (Alamethicin) and negative control wells (DMSO) as follows: Cytochromecrelease=1−(MFIsample−MFIAlamethicin)/(MFIDMSO−MFIAlamethicin)

[2] = system: BCR-ABL-expressing B-lineage acute lymphoblastic leukemia cells dependent on Bcl-xL; experiment: iBH3 profiling, cytochrome c release; type: cell-based; conditions: iBH3 fits Bcl-xL, sigmoidal dose-response (variable slope); for LogEC50 (best-fit value): log of EC50, x axis Log [Peptide M]; for Bottom (best-fit value) / Top (best-fit value): fit of 3 replicates
Experimental: as §2, §3, §4

[3] = system: BCR-ABL-expressing B-lineage acute lymphoblastic leukemia cells dependent on Mcl-1; conditions: iBH3 fits Mcl-1, sigmoidal dose-response (variable slope); for Bottom (best-fit value) / Top (best-fit value): fit of 3 replicates; for LogEC50 (best-fit value): log of EC50, x axis Log [Peptide M]
Experimental: as §2, §3, §4

[4] = system: BCR-ABL-expressing B-lineage acute lymphoblastic leukemia cells dependent on Bfl-1; conditions: for HillSlope (best-fit value) / Bottom (best-fit value) / Top (best-fit value) / LogEC50 (best-fit value): iBH3 fits Bfl-1, sigmoidal dose-response (variable slope); for Bottom (best-fit value) / Top (best-fit value): fit of 3 replicates; for cytochrome c release pattern in iBH3: low concentrations, highly primed cells of known anti-apoptotic protein dependency; for LogEC50 (best-fit value): log of EC50, x axis Log [Peptide M]
Experimental: as §2, §3, §4

[5] = competition FP source data, mean of three replicates, values above 5 μM are reported as > 5 μM in the figures, read-out: mean Ki (M) Bcl-xL
[6] = competition FP source data, replicate 1
[7] = competition FP source data, replicate 2
[8] = competition FP source data, replicate 3
[9] = competition FP source data, mean of three replicates, values above 5 μM are reported as > 5 μM in the figures, read-out: mean Ki (M) Bcl-2
[10] = competition FP source data, mean of three replicates, values above 5 μM are reported as > 5 μM in the figures, read-out: mean Ki (M) Bcl-w
[11] = competition FP, 50 nM c-myc-tagged receptor + 25 nM fluoresceinated BIM, Tris pH 7.8, 23°C, 3 hr, mean ± SD of three replicates, read-out: Ki (nM) Bcl-w

T1 sequence (Q07817 whole entry): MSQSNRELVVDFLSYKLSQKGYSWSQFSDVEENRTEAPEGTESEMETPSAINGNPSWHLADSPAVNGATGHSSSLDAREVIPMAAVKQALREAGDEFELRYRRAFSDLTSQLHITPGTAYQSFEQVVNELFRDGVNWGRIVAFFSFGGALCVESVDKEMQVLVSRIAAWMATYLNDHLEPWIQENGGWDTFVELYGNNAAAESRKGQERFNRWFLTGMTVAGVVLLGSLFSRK

| Substance | Ki (Bcl-xL; [5]) | Ki (M) Bcl-xL (Bcl-xL; [6]) | Ki (M) Bcl-xL (Bcl-xL; [7]) | Ki (M) Bcl-xL (Bcl-xL; [8]) | Ki (Bcl-2; [9]) | Ki (M) Bcl-2 (Bcl-2; [6]) | Ki (M) Bcl-2 (Bcl-2; [7]) | Ki (M) Bcl-2 (Bcl-2; [8]) | Ki (Bcl-w; [10]) | Ki (M) Bcl-w (Bcl-w; [6]) | Ki (M) Bcl-w (Bcl-w; [7]) | Ki (M) Bcl-w (Bcl-w; [8]) | LogEC50 (best-fit value) [1] | HillSlope (best-fit value) [1] | Bottom (best-fit value) [1] | Top (best-fit value) [1] | LogEC50 (best-fit value) [2] | HillSlope (best-fit value) [2] | Bottom (best-fit value) [2] | Top (best-fit value) [2] | further results |
| --- | --- | --- | --- | --- | --- | --- | --- | --- | --- | --- | --- | --- | --- | --- | --- | --- | --- | --- | --- | --- | --- |
| Ac-QWIREIAAGLRRFADILNAQVER-NH2 [FS3] | 3.23e-07 M | 2.75e-07 M | 4.23e-07 M | 2.72e-07 M | 2.06e-06 M | 1.85e-06 M | 2.41e-06 M | 1.93e-06 M | 7.67e-07 M | 7.55e-07 M | 8.54e-07 M | 6.93e-07 M | -5.822 | 2.312 | 0.1754 | 0.986 | -5.617 | 1.589 | 0.1375 | 0.9805 | HillSlope (best-fit value) [3]: 4.529; Bottom (best-fit value) [3]: 0.1359; Top (best-fit value) [3]: 0.9781; HillSlope (best-fit value) [4]: 0.832; Bottom (best-fit value) [4]: ~ -46.09; Top (best-fit value) [4]: 0.9862; cytochrome c release pattern in iBH3 [4]: selectively induced cytochrome c release only in Bfl-1 dependent cell lines |
| Ac-QWVREIAAGLRLAADNVNAQLER-NH2 [FS1] | 2.38e-06 M | 2.02e-06 M | 2.84e-06 M | 2.27e-06 M | 5.31e-06 M | 8.37e-06 M | 4.66e-06 M | 2.9e-06 M | 7.76e-06 M | 5.7e-06 M | 7.42e-06 M | 1.02e-05 M | -3.946 | 0.814 | 0.1541 | 1.46 | ~ -4.446 | ~ 9.069 | 0.1572 | 0.461 | Ki (Bcl-2; competition FP, 50 nM c-myc-tagged receptor + 25 nM fluoresceinated BIM, Tris pH 7.8, 23°C, 3 hr, mean ± SD of three replicates, read-out: Ki (nM) Bcl-2): > 5e-06 M; Ki (Bcl-w; [11]): > 5e-06 M; LogEC50 (best-fit value) [3]: -4.595; HillSlope (best-fit value) [3]: 1.721; Bottom (best-fit value) [3]: 0.09874; Top (best-fit value) [3]: 0.9023; LogEC50 (best-fit value) [4]: -6.521; HillSlope (best-fit value) [4]: 2.245; Bottom (best-fit value) [4]: 0.8808; Top (best-fit value) [4]: 0.9982; cytochrome c release pattern in iBH3 [4]: selectively induced cytochrome c release only in Bfl-1 dependent cell lines |
| Ac-QWVREIAAGLRRAADDVNAQVER-NH2 [FS2] | 7.07e-06 M | 6.54e-06 M | 1e-05 M | 4.66e-06 M | 2.41e-06 M | 2.55e-06 M | 2.86e-06 M | 1.82e-06 M | 8.27e-06 M | 1.14e-05 M | 6.45e-06 M | 6.96e-06 M | -4.564 | 1.006 | 0.134 | 1.087 | ~ -3.991 | ~ 14.29 | 0.1223 | ~ 0.6231 | Ki (Bcl-xL; competition FP, 50 nM c-myc-tagged receptor + 25 nM fluoresceinated BIM, Tris pH 7.8, 23°C, 3 hr, mean ± SD of three replicates, read-out: Ki (nM) Bcl-xL): > 5e-06 M; Ki (Bcl-w; [11]): > 5e-06 M; LogEC50 (best-fit value) [3]: -4.058; HillSlope (best-fit value) [3]: 1.725; Bottom (best-fit value) [3]: 0.1056; Top (best-fit value) [3]: 1.316; LogEC50 (best-fit value) [4]: ~ -9.301; HillSlope (best-fit value) [4]: 0.6008; Bottom (best-fit value) [4]: ~ -2.146; Top (best-fit value) [4]: 1.01; cytochrome c release pattern in iBH3 [4]: selectively induced cytochrome c release only in Bfl-1 dependent cell lines |
